Experiments:
[1] = Stability test of salt forms at temperature 40° C. and humidity 75% (HPLC chemical purity, physical properties); type: physicochemical; details: for Appearance / Hygroscopicity / Purity (%): 40° C./75% placement for 1 day; for Purity (%) / Initial purity: chemical purity by HPLC; for Initial purity: before placement
Description: Compare the properties of the desired salts of compound V, includes but not limits to as herein oxalate or phosphate, to hydrochloride. Conduct the stability test under the condition of temperature 40° C. and humidity 75%, measure the chemical purity by HPLC and observe the physical properties.

[2] = Hygroscopicity and deterioration of compound IV as found by the researchers; type: physicochemical; details: solid, storage and transport

Row | Appearance [1] | Hygroscopicity [1] | Purity (%) [1] [%] | Initial purity [1] | Deterioration (storage stability) [2] | Hygroscopicity [2] | SMILES
1 | Yellow solid | Strong | 87.5 | 95.1 | easily to be deteriorated | highly hygroscopic | COC(=O)[C@@H](N)Cc1ccc(-c2ccnc(C)c2C)cc1.Cl.Cl [Hydrochloride, methyl (S)-2-amino-3-[4-(2,3-dimethylpyridin-4-yl)-phenyl]-propionate dihydrochloride]
2 | White powder | Almost none | 99.0 | 99.1 |  |  | COC(=O)[C@@H](N)Cc1ccc(-c2ccnc(C)c2C)cc1.O=C(O)C(=O)O.O=C(O)C(=O)O [Oxalate, methyl (S)-2-amino-3-[4-(2,3-dimethylpyridin-4-yl)-phenyl]-propionate diacid salt]
3 | White to light | Slight | 96.1 | 98.5 |  |  | COC(=O)[C@@H](N)Cc1ccc(-c2ccnc(C)c2C)cc1.O=C(O)C(=O)O.O=C(O)C(=O)O [Phosphate, methyl (S)-2-amino-3-[4-(2,3-dimethylpyridin-4-yl)-phenyl]-propionate diacid salt]

— patent US20230348483A1, “PREPARATION METHOD FOR (S)-2-AMINO-3-(4-(2,3-DIMETHYLPYRIDIN-4-YL)PHENYL)METHYL PROPIONATE DIACID SALT” (Hangzhou Zhongmei Huadong Pharmaceutical Co., Ltd., priority 2020, published 2023)
